Experiment: Relaxometric properties: longitudinal relaxivity r1p in human plasma
Assay type: physicochemical
Conditions: expressed per mM gadolinium; for r1p at 0.47 T 37° C., human plasma: 0.47 T (20 MHz); for r1p at 1.41 T 37° C., human plasma: 1.41 T (60 MHz)
Description: The relaxometric properties of some representative complex compounds according to the invention have been determined at different magnetic field strengths, e.g. including 0.47 and 1.41 T, at 37° C., in human plasma and compared with relaxivity values measured, at the same conditions, for some Gd-complex of the market having an analogous cyclic coordination cage.
The longitudinal water proton relaxation rate (R1=1/T1) was measured at 0.47 T with a Minispec MQ-20 spectrometer (Bruker Biospin, Germany) operating at a proton Larmor frequency of 20 MHz; MR experiments at 1.41 T were performed using a Minispec MQ-60 spectrometer (Bruker Biospin, Germany) operating at a proton Larmor frequency of 60 MHz.
All test articles were used as supplied and diluted in the selected medium (human plasma) by weighting the required amount of paramagnetic chelated complex to get a starting solution of 5 or 10 mM concentration in gadolinium.
Relaxivity Measurements Five different concentration samples (0.1, 0.25, 0.5, 0.75 and 1 mM in gadolinium) for each medium have been prepared by further dilution of the starting 5 or 10 mM solution.
Relaxivity measurements were performed at 0.47 T and 1.41 T at a preset temperature sample of 37° C., kept constant by means of a thermostatic bath connected to the sample holder of the spectrometer. The five sample solutions have been preliminary pre-heated at 37° C. in an external thermostatic bath and then left 10 minutes inside the internal bath to assure the stabilization of the temperature. Longitudinal relaxation time T1 was measured by means of a standard inversion recovery sequence, where the inversion time (TI) was varied from 10 ms to at least 5 times T1 in 15 steps. Statistical analysis (mono-exponential fitting for T1 measurement, linear fitting for the evaluation of longitudinal relaxivity) was performed by Mathematica® (Wolfram, USA). Errors on the estimated parameters were evaluated by the fitting procedure.
The relaxivity values r1p of some representative compounds according to the invention, obtained in human plasma at 37° C., are summarized in the following Table A, together with the structure of tested compounds and the strength of the applied magnetic field (in T), and compared with corresponding values measured for two commercial contrast agents in clinical practice having a macrocyclic chelating cage.

| r1p at 0.47 T 37° C., human plasma [mM⁻¹ s⁻¹] | r1p at 1.41 T 37° C., human plasma [mM⁻¹ s⁻¹] | Compound |
| --- | --- | --- |
| 10.6 | 10.3 | COCCOCCOCCOCCN(CC(O)CN1CCN(CC(=O)O)CCN(CC(=O)O)CCN(CC(=O)O)CC1)CC(O)CN1CCN(CC(=O)O)CCN(CC(=O)O)CCN(CC(=O)O)CC1 (stereo not drawn) |
| 12.1 | 11.5 | COCCOCCOCCN(CCN(CCOCCOCCOC)CC(O)CN1CCN(CC(=O)O)CCN(CC(=O)O)CCN(CC(=O)O)CC1)CC(O)CN1CCN(CC(=O)O)CCN(CC(=O)O)CCN(CC(=O)O)CC1 (stereo not drawn) [Chelate Complex 9] |
| 4.5 | 3.6 | O=C(O)CN1CCN(CC(=O)O)CCN(CC(=O)O)CCN(CC(=O)O)CC1 [reference compound] |

Second part, the molecule before the results:

| Compound | r1p at 0.47 T 37° C., human plasma [mM⁻¹ s⁻¹] | r1p at 1.41 T 37° C., human plasma [mM⁻¹ s⁻¹] |
| --- | --- | --- |
| O=C(O)CN1CCN(CC(=O)O)CCN(CC(O)CN(CCOCCOCCO)CC(O)CN2CCN(CC(=O)O)CCN(CC(=O)O)CCN(CC(=O)O)CC2)CCN(CC(=O)O)CC1 (stereo not drawn) | 10.9 | 10.4 |
| O=C(O)CN1CCN(CC(=O)O)CCN(CC(O)CN(CC(O)CN2CCN(CC(=O)O)CCN(CC(=O)O)CCN(CC(=O)O)CC2)C(COCCOCCO)COCCOCCO)CCN(CC(=O)O)CC1 (stereo not drawn) | 10.1 | 9.8 |
| CC(O)CN1CCN(CC(=O)O)CCN(CC(=O)O)CCN(CC(=O)O)CC1 (stereo not drawn) (Gd complex, metal not drawn) [ProHance, reference compound] | 4.9 | 4.15 |

From patent US10793533B2, “Dimeric contrast agents” (BRACCO IMAGING S.P.A., priority 2016, dated 2020)
